Results as given in patent publication US20250206776A1, “ENZYME-INSTRUCTED SELF-ASSEMBLY OF PEPTIDES CONTAINING N-TERMINAL PHOSPHO-AROMATIC CAPPING MOTIF, AND USES THEREOF” (BRANDEIS UNIVERSITY, priority 2021, published 2025).
Each block holds one molecule with its values, some of them ahead of it.

Legend:
SJSA1 cells = test: MTT assay, SJSA1 cells; assay type: cell-based, human; details: SJSA1, 2 h, presence or absence of DQB (20 μM)
Experimental: (§1) Cell Culture: Saos2, SJSA1 and HepG2 cells were purchased from American Type Culture Collection (ATCC, USA). Saos2 cells were cultured in McCoy's 5A Medium (Gibco, Life Technologies) supplemented with 15% (v/v) fetal bovine serum (FBS) (Gibco, Life Technologies), 100 U/mL penicillin and 100 µg/mL streptomycin (Gibco, Life Technologies); SJSA1 cell were culture in RPMI1640 (ATCC, USA) Medium supplemented with 10% (v/v) FBS, 100 U/mL penicillin and 100 µg/mL streptomycin; HepG2 cells were cultured in Minimal Essential Medium (MEM) (Gibco, Life Technologies) supplemented with 10% (v/v) FBS, 100 U/mL penicillin and 100 µg/mL streptomycin. All the cells were maintained at 37° C. in a humidified atmosphere of 5% CO2.
MTT Assay: Cells were seeded in 96-well plates at 1×10^4 cells/well for 24 hours to allow attachment. After removing the culture medium, fresh culture medium containing different concentration of the precursors were added. […] 100 μL of SDS-HCl solution was then added to stop the reduction reaction and dissolve the formazan. The absorbance of each well at 595 nm was measured by a DTX880 Multimode Detector. The results were calculated as cell viability percentage relative to untreated cells. The MTT assay was performed in triplet (n=3) and the average value of the three measurements was taken. […]

Saos2 cells = test: MTT assay, Saos2 cells; assay type: cell-based, human; details: Saos2, 2 h, presence or absence of DQB (20 μM)
Experimental: as §1
MTT Assay: Cells were seeded in 96-well plates at 1×10^4 cells/well for 24 hours to allow attachment. After removing the culture medium, fresh culture medium containing different concentration of the precursors were added. After 24/48/72 hours, 10 μL MTT (ACROS Organics) solution (5 mg/mL) was added to each well to incubate at 37° C. for 4 h. 100 μL of SDS-HCl solution was then added to stop the reduction reaction and dissolve the formazan. The absorbance of each well at 595 nm was measured by a DTX880 Multimode Detector. The results were calculated as cell viability percentage relative to untreated cells. […]

[1] = hydrophobicity of the aromatic group; cited from earlier work
[2] = Solubility in PBS buffer / water; assay type: physicochemical; details: compared with 6

SMILES: COC(=O)CC[C@@H](NC(=O)[C@@H](Cc1ccccc1)NC(=O)[C@@H](Cc1ccccc1)NC(=O)c1ccc(-c2ccc(OP(=O)(O)O)cc2)cc1)C(=O)OC [9P]
cytotoxicity compared to 10P (cell viability) (SJSA1 cells): higher cytotoxicity | cytotoxicity compared to 10P (cell viability) (Saos2 cells): higher cytotoxicity

SMILES: c1ccc(-c2ccccc2)cc1 [biphenyl]
log P [1]: 3.71

relative water solubility [2]: more water soluble than 6
SMILES: O=C(N[C@H](Cc1ccccc1)C(=O)N[C@H](Cc1ccccc1)C(=O)O)c1ccc(O)cc1 [compound 2, B-ff]

relative water solubility [2]: more water soluble than 6
SMILES: O=C(N[C@H](Cc1ccccc1)C(=O)N[C@H](Cc1ccccc1)C(=O)O)c1ccc2cc(O)ccc2c1 [compound 4, NP-ff]
